The values that follow come from patent publication US12459951B2, “Compounds that interact with RAS superfamily proteins for treatment of cancers, inflammatory diseases, rasopathies, and fibrotic disease” (SHY Therapeutics, LLC, priority 2022, dated 2025).

For assay [1], the system named is Smad2/Smad3 phosphorylation. In words: Phospho-Smad2/3 Inhibition Assay (western blot), Panc-1. In kind it is cell-based, human. To be noted: at 10 μM, Panc-1 pancreatic cancer cell line; starred symbols = activation. The protocol: Protocol for Phospho-Smad2/3 Inhibition Assay
This assay is referred to as the “Phospho-Smad2/3 Inhibition Assay” throughout this application.
Cell lines: Human tumor-derived pancreatic cancer cell line Panc-1 (expressing KRas G12D mutant) and mouse muscle myoblast C2C12 were purchased from American Type Culture Collection and grown in complete DMEM-High Glucose, supplemented with penicillin (100 U/mL), streptomycin (100 μg/mL), and 10% heat-inactivated FBS at 37° C. in a humidified incubator with 5% CO2.
Method: Cells were plated at 350000 cells/well density in a 12-well plate, allowed 3 hours to adhere to the plate, then starved in the appropriate medium in the presence of 0.5% FBS overnight. The small molecules to be tested were added to the cells in the final concentration of 10 μM in the presence of 0.3% DMSO for 3 hours incubation at 37° C. For IC50 value determination, serial dilutions of compounds were added to cells under the same conditions. Next, Panc-1 cells were stimulated with 10 ng/ml TGF-b1 for 1 hour, and C2C12 cells were stimulated with 10 ng/ml TGF-b1 for 20 minutes (recombinant human TGF-b1, R&D Systems). After stimulation cells were lysed with lysis buffer containing 1% Triton X-100, EDTA, and Halt™ Protease & Phosphatase Inhibitor Cocktail (Thermo Scientific). Protein concentration was assessed by BCA protein assay (Thermo Scientific). Phosphorylation level of Smad2/Smad3 was determined by western blot.
Western blot protocol: Equal amounts of protein (15-50 μg) were separated by SDS-PAGE and transferred to nitrocellulose membranes (Invitrogen by Thermo Fisher Scientific). The membrane was stained with Ponceau S Stain (Boston BioProducts) to verify uniform protein loading. Membranes were blocked with 10% milk and phosphorylation levels of Smad2/Smad3 were assessed by incubating overnight at 4° C. with the following antibodies: Phospho-Smad2 (Ser465/467) and Phosph-Smad3 (Ser423/425), both from Cell Signaling Technology. Then the membranes were incubated with HRP-conjugated secondary antibody (Jackson Immunoresearch, West Grove, PA). Bands were incubated in Amersham ECL Prime Western Blotting Detection Reagent (GE Healthcare) and visualized using the ChemiDoc MP imaging system (Bio-Rad).

In the next assay the test system is TNF-alpha. In words: TNF-alpha Quantification Assay (ELISA), LPS-stimulated RAW 264.7. In kind it is cell-based. To be noted: Mus musculus, RAW264.7; at 10 μM; read-out: TNFα: % inh.
For assay [2], the system named is MiaPaca-2 (expressing KRAS G12C mutant). In words: Proliferation Assay (Cell Viability Assay). The assay is classed as cell-based. To be noted: Homo sapiens, MIA PaCa-2; read-out: Proliferation in MiaPaca-2: IC50. The protocol: Protocol for Proliferation Assay
This assay is referred to as the “Proliferation Assay” or “Cell Viability Assay” throughout this application.
Cell lines: Human tumor-derived cell lines were purchased from American Type Culture Collection. Human tumor-derived pancreatic cancer cell line MiaPaca-2 (expressing KRAS G12C mutant) and Panc-1 (expressing KRas G12D mutant), and Human non-small cell lung cancer (NSCLC) cell line A549 (expressing KRas G12S mutant) were grown in complete DMEM-High Glucose medium. Human colon cancer cell line SW-620 (expressing KRas G12V mutant) was grown in RPMI 1640 medium. All cell lines were supplemented with penicillin (100 U/mL), streptomycin (100 μg/mL), and 10% heat-inactivated FBS at 37° C. in a humidified incubator with 5% CO2.
Method: Cells were plated at 2000 to 5000 cells/well density in 96-wells plate and cultured overnight. Small molecules to be tested were added to the cells in the final concentration of 10 μM in the presence of 0.3% DMSO and 10% FBS and incubated for 2-4 days at 37° C. in a humidified incubator with 5% CO2. For IC50 value determination, serial dilutions of compounds were added to cells under the same conditions.
Assay: At the end of the incubation period, cell viability was determined using the CellTiter 96® Aqueous One Solution Cell Proliferation Assay according to manufacturer specifications (Promega, Madison, WI). The percentage of small molecules inhibition of cellular proliferation was calculated from raw data.
Cell lines: these Human tumor-derived cell lines were purchased from American Type Culture Collection. Human tumor-derived pancreatic cancer cell line MiaPaca-2 (expressing KRAS G12C mutant) and Panc-1 (expressing KRas G12D mutant), and Human non-small cell lung cancer (NSCLC) cell line A549 (expressing KRas G12S mutant), and Human melanoma cell line A375 (wild type Kras) were grown in complete DMEM-High Glucose medium. Human tumor-derived pancreatic cancer cell lines SU86.86 (expressing KRas G12D mutant), BxPC3 (expressing wild type K-Ras), and Human non-small cell lung cancer (NSCLC) cell lines NCI-H441 (expressing KRas G12S mutant), NCI-H1975 (expressing wild type KRas), NCI-H358 (expressing KRas G12C mutant), NCI-H1299 (expressing NRas Q61H mutant), and Human colon cancer cell line SW-620 (expressing KRas G12V mutant), Human triple negative breast cancer cell line HCC-1806 (expressing wild type KRas), and Human tumor-derived multiple myeloma cell line MM.1R (expressing wild type KRAS), were grown in RPMI 1640 medium. Human tumor-derived breast cancer cell line BT-549 (expressing wild type KRAS) was grown in RPMI 1640 medium in the presence of 11.8U insulin. Human tumor-derived pancreatic cancer cell line HPAF-II (expressing KRas G12D mutant), Human triple negative breast cancer cell line BT-20 (expressing wild type KRas), and Human colon cancer cell line LS123 (expressing KRas G12S mutant), were grown in EMEM medium. Human tumor-derived pancreatic cancer cell line CF-PAC1 (expressing KRas G12V mutant) was frown in IMDM medium, and Human colon cancer cell line HT29 (expressing wild type KRas) was grown in McCoy's 5A medium. The colon cancer cell line GP2d (expressing KRas G12D mutant) was purchased from MilliporeSigma and grown in DMEM-High Glucose medium. All cell lines were supplemented with penicillin (100 U/mL), streptomycin (100 μg/mL), and 10% heat-inactivated FBS at 37° C. in a humidified incubator with 5% CO2.
Method: Cells were plated at 2000 to 5000 cells/well density in 96-wells plate and cultured overnight. Small molecules that were tested were added to the cells in the final concentration of 10 μM in the presence of 0.3% DMSO and 10% FBS, and incubated for 2-4 days at 37° C. in a humidified incubator with 5% CO2. For IC50 value determination, serial dilutions of compounds were added to cells under the same conditions.

Where only a bound is given, the exact number is not on record here.

As to `CO[C@H]1CC[C@@H](Nc2nc(-c3ccccn3)nn3cc(-c4ccn(C(C)C)n4)c(C)c23)C1` (racemic) [Compound 9, rac 6-(1-Isopropyl-1H-pyrazol-3-yl)-N-((1R,3S)-3-methoxycyclopentyl)-5-methyl-2-(pyridin-2-yl)pyrrolo[2,1-f][1,2,4]triazin-4-amine], in assay [1], the “% inh of Smad2/3 phosphorylation in Panc-1” value (from here on “% inh”) is given as 0 (0 = 0% inhibition). For the same compound, in the assay with TNF-alpha, the inhibition at 10 µM was 0%. Also, the IC50 in assay [2] was above 1000 nM.

As to `Cc1c(-c2ccn(C(C)C)n2)cn2nc(-c3nccn3C)nc(Nc3nccn3C)c12` [Compound 93, 6-(1-Isopropyl-1H-pyrazol-3-yl)-5-methyl-N,2-bis(1-methyl-1H-imidazol-2-yl)pyrrolo[2,1-f][1,2,4]triazin-4-amine], the “% inh” value in assay [1] was “A (A = 1-25% inhibition)”. Also, in the assay with TNF-alpha, the inhibition at 10 µM lay in the range of 75 to 100%. Also, the IC50 in assay [2] lay within 150 to 500 nM.

As for `Cc1c(-c2ccn(C(C)C)n2)cn2nc(-c3nccn3C)nc(Nc3nccc(OCCO)n3)c12` [Compound 121, 2-((2-((6-(1-Isopropyl-1H-pyrazol-3-yl)-5-methyl-2-(1-methyl-1H-imidazol-2-yl)pyrrolo[2,1-f][1,2,4]triazin-4-yl)amino)pyrimidin-4-yl)oxy)ethan-1-ol], the “% inh” value in assay [1] is recorded as “A (A = 1-25% inhibition)”. In the assay on TNF-alpha, the inhibition at 10 µM fell in the range of 25 to 49%. For the same compound, in assay [2], the IC50 lay within 510 to 1000 nM.

Turning to `Cc1c(-c2ccn(C)n2)cn2nc(-c3nccn3C)nc(Nc3ccn(C4CC4)n3)c12` [Compound 111, N-(1-Cyclopropyl-1H-pyrazol-3-yl)-5-methyl-2-(1-methyl-1H-imidazol-2-yl)-6-(1-methyl-1H-pyrazol-3-yl)pyrrolo[2,1-f][1,2,4]triazin-4-amine], the “% inh” value in assay [1] is “D* (D* = 76-100% activation)”. In the assay on TNF-alpha, the inhibition at 10 µM was in the range of 50 to 74%. For the same compound, the IC50 in assay [2] was in the range of 150 to 500 nM.

As for `COCCOc1cc(Nc2nc(-c3nccn3C)nn3cc(-c4ccn(C(C)C)n4)c(C)c23)ncn1` [Compound 122, 6-(1-Isopropyl-1H-pyrazol-3-yl)-N-(6-(2-methoxyethoxy)pyrimidin-4-yl)-5-methyl-2-(1-methyl-1H-imidazol-2-yl)pyrrolo[2,1-f][1,2,4]triazin-4-amine], in assay [1], the “% inh” value was “C (C = 46-75% inhibition)”. The inhibition at 10 µM in the assay on TNF-alpha lay within 1 to 24%. Also, the IC50 in assay [2] is below 150 nM.

With `Cc1c(-c2ccn(C)n2)cn2nc(-c3nccn3C)nc(Nc3ccncn3)c12.Cl` [Compound 116, 5-Methyl-2-(1-methyl-1H-imidazol-2-yl)-6-(1-methyl-1H-pyrazol-3-yl)-N-(pyrimidin-4-yl)pyrrolo[2,1-f][1,2,4]triazin-4-amine hydrochloride salt], the “% inh” value in assay [1] is “D (D = 76-100% inhibition)”. Besides, the inhibition at 10 µM with TNF-alpha worked out at 0%. In addition, in assay [2], the IC50 was below 150 nM.

For `COc1cc(-c2cn3nc(-c4nccn4C)nc(N[C@H]4C[C@@H](OC)C4)c3c2C)ccn1` [Compound 162, N-((1s,3s)-3-Methoxycyclobutyl)-6-(2-methoxypyridin-4-yl)-5-methyl-2-(1-methyl-1H-imidazol-2-yl)pyrrolo[2,1-f][1,2,4]triazin-4-amine], in assay [1], the “% inh” value is “A (A = 1-25% inhibition)”. Moreover, the inhibition at 10 µM in the assay with TNF-alpha was 25 to 49%. Moreover, in assay [2], the IC50 is above 1000 nM.

Regarding `Cc1c(-c2ccn(C3CC3)n2)cn2nc(-c3nccn3C)nc(Nc3cc(OCCCO)ccn3)c12` [Compound 149, 3-((2-((6-(1-Cyclopropyl-1H-pyrazol-3-yl)-5-methyl-2-(1-methyl-1H-imidazol-2-yl)pyrrolo[2,1-f][1,2,4]triazin-4-yl)amino)pyridin-4-yl)oxy)propan-1-ol], the “% inh” value in assay [1] was “A (A = 1-25% inhibition)”. Further, the inhibition at 10 µM with TNF-alpha was in the range of 75 to 100%. For the same compound, in assay [2], the IC50 lay in the range of 510 to 1000 nM.

In the case of `Cc1c(-c2ccn(C3CC3)n2)cn2nc(-c3nccn3C)nc(Nc3cc(OCC(F)(F)F)ccn3)c12` [Compound 140, 6-(1-Cyclopropyl-1H-pyrazol-3-yl)-5-methyl-2-(1-methyl-1H-imidazol-2-yl)-N-(4-(2,2,2-trifluoroethoxy)pyridin-2-yl)pyrrolo[2,1-f][1,2,4]triazin-4-amine], in assay [1], the “% inh” value was “A (A = 1-25% inhibition)”. Besides, the inhibition at 10 µM in the assay with TNF-alpha was found to be 0%. The IC50 in assay [2] was below 150 nM.

For `Cc1c(-c2ccn(C(C)C)n2)cn2nc(-c3nccn3C)nc(Nc3cc(OCCO)ncn3)c12` [Compound 97, 2-((6-((6-(1-Isopropyl-1H-pyrazol-3-yl)-5-methyl-2-(1-methyl-1H-imidazol-2-yl)pyrrolo[2,1-f][1,2,4]triazin-4-yl)amino)pyrimidin-4-yl)oxy) ethan-1-ol], the “% inh” value in assay [1] is “D (D = 76-100% inhibition)”. For the same compound, the inhibition at 10 µM in the assay with TNF-alpha is 0%. Further, the IC50 in assay [2] is below 150 nM.

Turning to `COc1ccnc(Nc2nc(-c3nccn3C)nn3cc(-c4cccnc4)c(C)c23)n1` [Compound 158, N-(4-Methoxy-pyrimidin-2-yl)-5-methyl-2-(1-methyl-1H-imidazol-2-yl)-6-(pyridin-3-yl)pyrrolo[2,1-f][1,2,4]triazin-4-amine], in assay [1], the “% inh” value is reported as “B* (B* = 26-45% activation)”. Moreover, the inhibition at 10 µM in the assay with TNF-alpha worked out at 0%. Also, the IC50 in assay [2] is below 150 nM.

On to `Cc1ccnc(Nc2nc(-c3nccn3C)nn3cc(-c4ccn(C5CC5)n4)c(C)c23)c1` [Compound 144, 6-(1-Cyclopropyl-1H-pyrazol-3-yl)-5-methyl-2-(1-methyl-1H-imidazol-2-yl)-N-(4-methylpyridin-2-yl)pyrrolo[2,1-f][1,2,4]triazin-4-amine], for which the “% inh” value in assay [1] is given as “D (D = 76-100% inhibition)”. Further, in the assay with TNF-alpha, the inhibition at 10 µM lay in the range of 1 to 24%. In assay [2], the IC50 was below 150 nM.
